Here are results for nine compounds from PubChem BioAssay (NCI).

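1) Cells in 96-well plates. 2) Compound, 48 h, 5 concentrations. 3) Linear interpolation between surrounding doses. 4) Unreached endpoint = highest concentration. TGI marks complete inhibition of growth.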

The first assay concerns CAKI-1 renal. Briefly: NCI tumour cell line growth inhibition, 48 h.
As to `C[C@]12OC[C@H](c3ccccc3)N1C(=O)C1[C@H]2CC12SCCS2` (stereo not given in full), the TGI was more than 100 µM.
`c1sc(NC2=NCCO2)c2c1CCCC2` registered a TGI of more than 100 µM.
For the compound `Cc1c(Cl)ccc2c(=O)c3cccc(CC(=O)O)c3oc12`, the TGI was more than 100 µM.
As for `CC(=O)C(CN1CCCCC1)C(c1ccccc1)c1c(O)c2ccccc2oc1=O` (stereo not given), the TGI was more than 100 µM.
On the same count and under the same terms, the result for `C/C(=N\NC(=S)NC(C)C)c1nc2ncccc2[nH]1` reads more than 89.1 µM.
Consider `O=c1oc2ccccc2c(O)c1C(c1cc(OCc2ccccc2)cc(OCc2ccccc2)c1)c1c(O)c2ccccc2oc1=O`, for which the TGI is 22.1 µM.
Take `Cc1cccc(N2C(=O)C3ON(C(C(N)=O)c4ccccc4)C(c4c5ccccc5c(Cl)c5ccccc45)C3C2=O)c1C` (stereo not given): the TGI was determined as 27.3 µM.
For `Nc1ccccc1Nc1ccccc1C(=O)[O-].Nc1ccccc1Nc1ccccc1C(=O)[O-].[Cu+2]`, the TGI was more than 100 µM.
Same read-out and setting: next, `Cc1cc2c(c(C(=O)NCCC(=O)O)c1)Oc1c(cc(C)cc1C(=O)NCCC(=O)O)S2`: more than 100 µM.

In the next assay the test system is CCRF-CEM leukemia. Briefly: NCI tumour cell line growth inhibition, 48 h.
Regarding `C[C@]12OC[C@H](c3ccccc3)N1C(=O)C1[C@H]2CC12SCCS2` (stereo not given in full), the TGI is more than 100 µM.
Same read-out and setting: next, `c1sc(NC2=NCCO2)c2c1CCCC2`: more than 100 µM; `Cc1c(Cl)ccc2c(=O)c3cccc(CC(=O)O)c3oc12`: more than 100 µM; `CC(=O)C(CN1CCCCC1)C(c1ccccc1)c1c(O)c2ccccc2oc1=O` (stereo not given): more than 100 µM.
On the same count and under the same terms, next, `C/C(=N\NC(=S)NC(C)C)c1nc2ncccc2[nH]1`: more than 100 µM; `O=c1oc2ccccc2c(O)c1C(c1cc(OCc2ccccc2)cc(OCc2ccccc2)c1)c1c(O)c2ccccc2oc1=O`: more than 22.5 µM.
Still for that read-out and setting: the result for `Cc1cccc(N2C(=O)C3ON(C(C(N)=O)c4ccccc4)C(c4c5ccccc5c(Cl)c5ccccc45)C3C2=O)c1C` (stereo not given) reads more than 50 µM; that for `Nc1ccccc1Nc1ccccc1C(=O)[O-].Nc1ccccc1Nc1ccccc1C(=O)[O-].[Cu+2]`, more than 100 µM; that for `Cc1cc2c(c(C(=O)NCCC(=O)O)c1)Oc1c(cc(C)cc1C(=O)NCCC(=O)O)S2`, more than 100 µM.

The test system of another assay is EKVX NSCLC. The assay can be described thus: NCI tumour cell line growth inhibition, 48 h.
Compound `C[C@]12OC[C@H](c3ccccc3)N1C(=O)C1[C@H]2CC12SCCS2` (stereo not given in full) displayed a TGI of more than 100 µM.
In turn, `c1sc(NC2=NCCO2)c2c1CCCC2` showed a TGI of more than 100 µM.
`Cc1c(Cl)ccc2c(=O)c3cccc(CC(=O)O)c3oc12`: the TGI was more than 100 µM.
Compound `CC(=O)C(CN1CCCCC1)C(c1ccccc1)c1c(O)c2ccccc2oc1=O` (stereo not given) displayed a TGI of more than 100 µM.
On the same count and under the same terms, the result for `C/C(=N\NC(=S)NC(C)C)c1nc2ncccc2[nH]1` reads more than 69.7 µM; that for `O=c1oc2ccccc2c(O)c1C(c1cc(OCc2ccccc2)cc(OCc2ccccc2)c1)c1c(O)c2ccccc2oc1=O`, 41.8 µM.
`Cc1cccc(N2C(=O)C3ON(C(C(N)=O)c4ccccc4)C(c4c5ccccc5c(Cl)c5ccccc45)C3C2=O)c1C` (stereo not given): the TGI was 22.5 µM.
On the same count and under the same terms, the result for `Nc1ccccc1Nc1ccccc1C(=O)[O-].Nc1ccccc1Nc1ccccc1C(=O)[O-].[Cu+2]` reads more than 100 µM; that for `Cc1cc2c(c(C(=O)NCCC(=O)O)c1)Oc1c(cc(C)cc1C(=O)NCCC(=O)O)S2`, more than 100 µM.

In another assay the test system is HCT-116 colon. Briefly: NCI tumour cell line growth inhibition, 48 h.
`C[C@]12OC[C@H](c3ccccc3)N1C(=O)C1[C@H]2CC12SCCS2` (stereo not given in full) had a TGI of more than 100 µM.
Compound `c1sc(NC2=NCCO2)c2c1CCCC2` had a TGI of more than 100 µM.
On the same count and under the same terms, next, `Cc1c(Cl)ccc2c(=O)c3cccc(CC(=O)O)c3oc12`: more than 100 µM; `CC(=O)C(CN1CCCCC1)C(c1ccccc1)c1c(O)c2ccccc2oc1=O` (stereo not given): more than 100 µM; `C/C(=N\NC(=S)NC(C)C)c1nc2ncccc2[nH]1`: more than 100 µM.
On the same count and under the same terms, next, `O=c1oc2ccccc2c(O)c1C(c1cc(OCc2ccccc2)cc(OCc2ccccc2)c1)c1c(O)c2ccccc2oc1=O`: 17.5 µM; `Cc1cccc(N2C(=O)C3ON(C(C(N)=O)c4ccccc4)C(c4c5ccccc5c(Cl)c5ccccc45)C3C2=O)c1C` (stereo not given): 3.84 µM.
As to `Nc1ccccc1Nc1ccccc1C(=O)[O-].Nc1ccccc1Nc1ccccc1C(=O)[O-].[Cu+2]`, the TGI is more than 100 µM.
The same measure, in the same setting: the result for `Cc1cc2c(c(C(=O)NCCC(=O)O)c1)Oc1c(cc(C)cc1C(=O)NCCC(=O)O)S2` reads more than 100 µM.

The test system of another assay is HT29 colon. Briefly: NCI tumour cell line growth inhibition, 48 h.
`C[C@]12OC[C@H](c3ccccc3)N1C(=O)C1[C@H]2CC12SCCS2` (stereo not given in full) registered a TGI of more than 100 µM.
Turning to `c1sc(NC2=NCCO2)c2c1CCCC2`, the TGI was more than 100 µM.
In the case of `Cc1c(Cl)ccc2c(=O)c3cccc(CC(=O)O)c3oc12`, the TGI is more than 100 µM.
Still for that read-out and setting: next, `CC(=O)C(CN1CCCCC1)C(c1ccccc1)c1c(O)c2ccccc2oc1=O` (stereo not given): more than 100 µM; `C/C(=N\NC(=S)NC(C)C)c1nc2ncccc2[nH]1`: more than 100 µM.
With `O=c1oc2ccccc2c(O)c1C(c1cc(OCc2ccccc2)cc(OCc2ccccc2)c1)c1c(O)c2ccccc2oc1=O`, the TGI stood at 33.5 µM.
`Cc1cccc(N2C(=O)C3ON(C(C(N)=O)c4ccccc4)C(c4c5ccccc5c(Cl)c5ccccc45)C3C2=O)c1C` (stereo not given) registered a TGI of 14.9 µM.
The same measure, in the same setting: next, `Nc1ccccc1Nc1ccccc1C(=O)[O-].Nc1ccccc1Nc1ccccc1C(=O)[O-].[Cu+2]`: more than 100 µM; `Cc1cc2c(c(C(=O)NCCC(=O)O)c1)Oc1c(cc(C)cc1C(=O)NCCC(=O)O)S2`: more than 100 µM.

The next assay has as its system KM12 colon. The assay can be described thus: NCI tumour cell line growth inhibition, 48 h.
`C[C@]12OC[C@H](c3ccccc3)N1C(=O)C1[C@H]2CC12SCCS2` (stereo not given in full) gave a TGI of more than 100 µM.
Same read-out and setting: the result for `c1sc(NC2=NCCO2)c2c1CCCC2` reads more than 100 µM.
Still for that read-out and setting: the result for `Cc1c(Cl)ccc2c(=O)c3cccc(CC(=O)O)c3oc12` reads more than 100 µM; that for `CC(=O)C(CN1CCCCC1)C(c1ccccc1)c1c(O)c2ccccc2oc1=O` (stereo not given), more than 100 µM; that for `C/C(=N\NC(=S)NC(C)C)c1nc2ncccc2[nH]1`, more than 100 µM.
